Measured values taken from patent US20240252456A1, “ORAL COMPOSITION, SKIN COSMETIC AND HAIR COSMETIC” (MARUZEN PHARMACEUTICALS CO., LTD., priority 2021, published 2024).

Experiments:
[1] = tested on: cyclic AMP phosphodiesterase; assay: Cyclic AMP phosphodiesterase activity inhibitory action test; type: biochemical
Description: To 0.2 mL of 50 mmol/L Tris-HCl buffer solution (pH 7.5) containing 5 mmol/L magnesium chloride, 0.1 mL of 2.5 mg/mL bovine serum albumin solution, 0.1 mL of 0.1 mg/mL cyclic AMP phosphodiesterase solution, and 0.05 mL of the test sample solution (Sample 1, see Table 2 below for final concentration) were added, and the mixture was statically placed at 37° C. for 5 minutes. Then, 0.05 mL of 0.5 mg/mL cyclic AMP solution was added, and the mixture was reacted at 37° C. for 60 minutes. After the reaction was completed, the reaction was stopped by boiling in a boiling water bath for 3 minutes, and then centrifugal separation was applied (2260×g, 10 minutes, 4° C.). Cyclic AMP, a reaction substrate in the supernatant, was analyzed under the following high-performance liquid chromatography conditions. In addition, as a control, the same operation was performed by adding only the solvent to which no sample was added.
• Product name: Chromatocorder 12 (available from SYSTEM INSTRUMENTS) • Stationary phase: Wakosil C18-ODS 5 μm (available from FUJIFILM Wako Pure Chemical Corporation) • Column length: 250 mm • Mobile phase: 1 mmol/L TBAP in 25 mmol/L KH2PO4: CH3CN=90:10 • Mobile phase flow rate: 1.0 mL/min • Detection: 260 nm
Then, a peak area (A) of a cyclic AMP standard product, a peak area (B1) of the supernatant reaction solution of the cyclic AMP standard product and the cyclic AMP phosphodiesterase when no sample was added, and a peak area (B2) of the supernatant reaction solution of the cyclic AMP standard product and the cyclic AMP phosphodiesterase when the test sample was added were obtained. From the obtained results, a decomposition rate (C) of the cyclic AMP standard product when no sample was added and a decomposition rate (D) of the cyclic AMP standard product when the test sample was added were calculated using the following equations.
After that, the cyclic AMP phosphodiesterase activity inhibition rate (%) was calculated from the following equation based on each decomposition rate (C, D) calculated from the above equations.

AGEs = assay: Advanced glycation end product (AGEs) decomposition promotive action test; settings: preformed AGEs, 37° C., 20 days
Description: In a 96-well type I collagen-coated plate (available from AGC Inc.), 100 μL of 0.2M D(−)-ribose solution prepared with PBS(−) buffer solution was added and statically placed at 37° C. for 2 weeks to form AGEs. In addition, the plate in which only the PBS(−) buffer solution was added was statically placed as a negative control in the same manner. After 2 weeks, 100 μL of the test sample (Sample 1, see Table 23 below for final concentration) prepared with PBS (−) buffer solution was added to each of the plates and statically further placed at 37° C. for 20 days. As a positive control, only PBS(−) buffer solution was statically placed in the same manner as substitute for the test sample, and as a negative control, only PBS(−) buffer solution was continued to be statically placed in the same manner. After 20 days, the amount of AGEs was measured by the ELISA method using an anti-AGEs antibody (available from TPANS GENIC INC.), and the AGEs decomposition promotive action was evaluated. From the obtained results, the AGEs decomposition promotion rate (%) was calculated using the following equation.
Terms in the equation represent the following respective ones. • A: Absorbance at wavelength 405 nm in negative control • B: Absorbance at wavelength 405 nm in positive control • C: Absorbance at wavelength 405 nm with test sample addition

[2] = tested on: Mouse macrophage cells (RAW264.7); assay: Nitric oxide (NO) production suppressive action test; type: cell-based; settings: RAW264.7, LPS 1 μg/mL, 48 hours
Description: Mouse macrophage cells (RAW264.7) were cultured using Dulbecco's modified Eagle's medium (DMEM) containing 10% FBS, and then the cells were collected using a cell scraper. The collected cells were diluted with phenol red-free DMEM containing 10% FBS to a cell density of 3.0×10^6 cells/mL, then seeded with 100 μL per well in a 96-well plate, and cultured for 4 hours.
After culturing, the medium was removed, 100 μL of the test sample (Sample 1, see Table 26 below for final concentration) dissolved in phenol red-free DMEM containing DMSO at a final concentration of 0.5% and 10% FBS was added to each well, 100 μL of lipopolysaccharide (LPS, final concentration 1 μg/mL, E. coli 0111:B4, available from DIFCO) dissolved in phenol red-free DMEM containing 10% FBS was added, and culturing was performed for 48 hours. As a control, the LPS process was performed in the same manner using, as substitute for the test sample solution, phenol red-free DMEM containing DMSO at a final concentration of 0.5% and 10% FBS to which no sample was added.
The production amount of nitric oxide (NO) was measured using the amount of nitrite ions ([…]) as an index. After the culturing was completed, the same amount of Griess reagent (5 mass % phosphoric acid solution containing 1 mass % sulfanilamide and 0.1 mass % N-1-naphthyl ethylendiamine dihydrochloride) as the culture supernatant was added to the culture solution in each well and reacted for 10 minutes at room temperature. After the reaction, the absorbance at a wavelength of 540 nm was measured. The nitric oxide (NO) production suppression rate (%) was calculated by the following equation based on the nitric oxide (NO) production amount when no sample was added (control).
Terms in the equation represent the following respective ones. • A: NO amount with test sample addition • B: NO amount […]

O=C(O)CCc1ccc(O)c(O)c1 [Sample 1, 3,4-Dihydroxyhydrocinnamic acid]
cAMP phosphodiesterase activity inhibition rate ([1]; 500 μmol/L): 42.0%
cAMP phosphodiesterase activity inhibition rate ([1]; 1000 μmol/L): 46.8%
cAMP phosphodiesterase activity inhibition rate ([1]; 2000 μmol/L): 55.3%
AGEs decomposition promotion rate (AGEs; 125 μmol/L): 37.7%
AGEs decomposition promotion rate (AGEs; 500 μmol/L): 39.9%
AGEs decomposition promotion rate (AGEs; 2000 μmol/L): 34.1%
NO production suppression rate ([2]; 31.2 μmol/L): 14.9%
NO production suppression rate ([2]; 125 μmol/L): 49.4%
NO production suppression rate ([2]; 500 μmol/L): 77.8%
